The numbers were not newly measured in US20140163109A1, “TASTE-MASKED IBUPROPEN GRANULES” (GLATT AG, priority 2012, published 2014), which cites them from elsewhere.

The structures appear in SMILES notation.

Take `CC(C)Cc1ccc(C(C)C(=O)O)cc1` (racemic) [Ibuprofen, (±)-2-(4-isobutylphenyl) propionic acid]: the solubility in water result was “poorly soluble in water”.
